Data published in patent US4122184A, “Benzimidazole insecticides” (priority 1977, dated 1978).

Tests used:
Boll Weevil = Boll Weevil Test; assay type: in vivo, Anthonomus grandis (Coleoptera); details: 48 h
Text: The procedure is identical to that employed for the Mexican bean beetle and the Southern armyworm, except that 10 adult boll weevils are placed on cotton leaves that have been dipped into formulations of the test compounds. The same rating scale is used.

Yellow Mealworm Larvae = test: Field trial, topical application; assay type: in vivo; set-up: key: 0 = 0-10% mortality, 9 = 91-100% mortality (0-9 scale)
Summary of the method: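 1 μL benzimidazole solution of set microgram content applied topically to larvae or adults. Mortality read at 24, 48 and 72 h where applicable, rated 0-9 (0 = 0-10%, 9 = 91-100%); values are average mortality per concentration.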

[1] = test system: Southern Corn Rootworm Adults; test: Field trial, stomach poison test; assay type: in vivo; set-up: key: mortality rating on a 0 to 9 scale
Summary of the method: (§1)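 Mortality scored 0–9 at 24, 48 and 72 h after insects fed on treated leaves. Leaves sprayed at 10 psi or dipped in test solutions, air-dried; 5 or 10 insects/dish, 1–2 replicates, typically 2–3 rates per compound. Values are average mortality per concentration.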

[2] = test system: Striped Cucumber Beetle Adults; test: Field trial, stomach poison test; assay type: in vivo; set-up: key: mortality rating on a 0 to 9 scale
Summary of the method: as §1

Bean Leaf Beetle [3] = test: Field trial, stomach poison test; assay type: in vivo
Summary of the method: as §1

[4] = test system: Southern Corn Rootworm Adults; test: Field trial, contact poison test; assay type: in vivo
Summary of the method: (§2)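 Infested plants in water-filled bottles sprayed by atomizer at 10 psi with compound at several concentrations. Mortality read at 24, 48 and 72 hours on a 0–9 scale (0 = 0-10%, 9 = 91-100%), averaged per concentration.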

[5] = test system: Red-Legged Grasshopper Adults; test: Field trial, contact poison test; assay type: in vivo
Summary of the method: as §2

Bean Leaf Beetle [6] = test: Field trial, contact poison test; assay type: in vivo
Summary of the method: as §2

Squash Bug Adults = test: Field trial, contact poison test; assay type: in vivo; set-up: key: 0-9 rating: 0 = 0-10% mortality, 9 = 91-100% mortality
Summary of the method: as §2

Two-spotted Spider Mite = Two-spotted Spider Mite test; assay type: in vivo, Tetranychus urticae (Acarina); details: 48 h
Procedure: The procedure in this test is the same as that in the previous aphid test, except that about 100 two-spotted spider mites from a stock colony raised on squash plants are transferred to a cut squash cotyledon. The mortality is estimated 48 hours after spraying. The same rating scale is used.

Oriental Cockroach = test: Oriental Roach Test; assay type: in vivo, Blatta orientalis (Orthoptera); details: 24 h
Summary of the method: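 Ten late-instar (3-4 month) nymphs per cage, held at 70°-80° F., sprayed with 5 ml of insecticide formulation at a specified amount. Cockroaches kept unfed and unwatered; mortality counted 24 hours post-spray, with insects staying on the cage bottom after light shaking scored dead.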

Southern Armyworm = Southern Armyworm Test; assay type: in vivo, Prodenia eridania (Lepidoptera); details: 48 h
Procedure: Ten uniform Southern armyworm larvae about 1-1.5 cm. in length, grown on Henderson lima beans, are placed on excized bean leaves in petri dishes. The bean leaves are obtained and sprayed with the insecticide in the same way as are the snap bean leaves in the Mexican bean beetle test. The reference standards in this instance are leaves sprayed with 5 ml. 100 ppm DDT solution. Mortality counts are made 48 hours after spraying and again moribund larvae are counted as dead. Missing larvae which have probably been eaten are considered alive. The same rating scale is used as in the Mexican bean beetle test.

Mexican Bean Beetle = Mexican Bean Beetle Test; assay type: in vivo, Epilachna varivestis (Coleoptera); details: 48 h
Procedure: Cuttings of four six-day old Bountiful snap bean plants containing two leaves with approximately 5 square inches of leaf surface, are placed in water. The leaves are sprayed to wetting with about 5-10 ml. of a formulation containing a pre-determined level of the test compound. Half of the formulation is sprayed on the top surface and half on the bottom surface of the leaf using a DeVilbiss atomizer at 10 psi held at a distance of about 18 inches from the leaf. After the leaves have dried, they are cut from the stem and placed separately in petri dishes. Ten third instar, nonmolting Mexican bean beetle larvae grown on Bountiful snap beans are placed on each leaf. Controls consist of two leaves sprayed with 5 ml. of a 500 ppm malathion formulation (reference standard), two leaves sprayed with the formulation without the active ingredient and two leaves are held as untreated controls. After 48 hours, a mortality count is made and the amount of feeding noted. Moribund larvae are counted as dead.

Which mortality rating (Boll Weevil; 5 ppm) does the source give for `O=[N+]([O-])c1cc(C(F)(F)F)cc2nc(C(F)(F)F)[nH]c12` [A, 2,6-bis(trifluoromethyl)-4-nitrobenzimidazole] here?
The mortality rating was 7.5.

And the mortality rating (Boll Weevil; 10 ppm)?
Its mortality rating is 6.7.

And the mortality rating (Boll Weevil; 25 ppm)?
Its mortality rating is 8.8.

What about the mortality rating (Boll Weevil; 50 ppm) of the same molecule?
The mortality rating was 8.5.

What about the average mortality rating (Yellow Mealworm Larvae; 0.03 μg/μl) of the same molecule?
The average mortality rating was 3.

What about the average mortality rating (Yellow Mealworm Larvae; 0.07 μg/μl) of the same molecule?
Its average mortality rating is 5.

And the average mortality rating (Yellow Mealworm Larvae; 0.15 μg/μl)?
Its average mortality rating is 5.

And the average mortality rating ([1]; 25 ppm)?
The average mortality rating was 4.

What about the average mortality rating ([1]; 50 ppm) of the same molecule?
The average mortality rating was 6.

And the average mortality rating ([1]; 100 ppm)?
The average mortality rating was 7.

What about the average mortality rating ([2]; 10 ppm) of the same molecule?
Its average mortality rating is 1.

And the average mortality rating ([2]; 25 ppm)?
Its average mortality rating is 3.

What about the average mortality rating ([2]; 50 ppm) of the same molecule?
The average mortality rating was 6.

What about the average mortality rating ([2]; 100 ppm) of the same molecule?
Its average mortality rating is 5.

What about the average mortality rating (Bean Leaf Beetle [3]; 10 ppm) of the same molecule?
The average mortality rating was 0 (0-10 percent).

What about the average mortality rating (Bean Leaf Beetle [3]; 25 ppm) of the same molecule?
Its average mortality rating is 0 (0-10 percent).

What about the average mortality rating (Bean Leaf Beetle [3]; 50 ppm) of the same molecule?
The average mortality rating was 1.

What about the average mortality rating ([4]; 25 ppm) of the same molecule?
The average mortality rating was 4.

What about the average mortality rating ([4]; 50 ppm) of the same molecule?
The average mortality rating was 6.

And the average mortality rating ([4]; 100 ppm)?
The average mortality rating was 8.

What about the average mortality rating ([5]; 10 ppm) of the same molecule?
Its average mortality rating is 3.

What about the average mortality rating ([5]; 25 ppm) of the same molecule?
The average mortality rating was 4.

What about the average mortality rating ([5]; 50 ppm) of the same molecule?
The average mortality rating was 4.

And the average mortality rating (Bean Leaf Beetle [6]; 25 ppm)?
Its average mortality rating is 0 (0-10 percent).

And the average mortality rating (Bean Leaf Beetle [6]; 50 ppm)?
The average mortality rating was 0 (0-10 percent).

And the average mortality rating (Bean Leaf Beetle [6]; 100 ppm)?
The average mortality rating was 0 (0-10 percent).

And the average mortality rating (Squash Bug Adults; 125 ppm)?
Its average mortality rating is 0 (0-10 percent).

And the average mortality rating (Squash Bug Adults; 250 ppm)?
Its average mortality rating is 6.

And the average mortality rating (Squash Bug Adults; 500 ppm)?
Its average mortality rating is 9 (91-100 percent mortality).

And the average mortality rating (Squash Bug Adults; 750 ppm)?
Its average mortality rating is 9 (91-100 percent mortality).

What does the source list for “mixture of N,N-dimethyl-4-nitro-2,6-bis(trifluoromethyl)thio-1-benzimidazolecarboxamide and N,N-dimethyl-7-nitro-2,5-bis(trifluoromethyl)thio-1-benzimidazolecarboxamide [P]”?
mortality rating (Boll Weevil; 10 ppm): 1.5; mortality rating (Boll Weevil; 25 ppm): 5 (51-60); mortality rating (Boll Weevil; 50 ppm): 8 (81-90); mortality rating (Boll Weevil; 100 ppm): 9 (91-100); mortality rating (Boll Weevil; 250 ppm): 9 (91-100); mortality rating (Boll Weevil; 500 ppm): 9 (91-100); mortality rating (Boll Weevil; 1000 ppm): 9 (91-100); mortality rating (Two-spotted Spider Mite; 1 ppm): 3 (31-40); mortality rating (Two-spotted Spider Mite; 5 ppm): 4 (41-50); mortality rating (Two-spotted Spider Mite; 10 ppm): 4 (41-50); mortality rating (Two-spotted Spider Mite; 25 ppm): 6 (61-70); mortality rating (Two-spotted Spider Mite; 50 ppm): 7.0; mortality rating (Two-spotted Spider Mite; 100 ppm): 7.5; mortality rating (Two-spotted Spider Mite; 250 ppm): 8.5; mortality rating (Two-spotted Spider Mite; 500 ppm): 9 (91-100); mortality rating (Two-spotted Spider Mite; 1000 ppm): 9 (91-100); mortality rating (Oriental Cockroach; 50 ppm): 0 (0-10); mortality rating (Oriental Cockroach; 100 ppm): 2.5; mortality rating (Oriental Cockroach; 250 ppm): 5.5; mortality rating (Oriental Cockroach; 500 ppm): 9 (91-100); mortality rating (Oriental Cockroach; 1000 ppm): 8 (81-90); average mortality rating ([2]; 10 ppm): 5; average mortality rating ([2]; 25 ppm): 4; average mortality rating ([2]; 50 ppm): 5; average mortality rating ([2]; 100 ppm): 9 (91-100 percent mortality); mortality rating (Southern Armyworm; 250 ppm): 0 (0-10); mortality rating (Southern Armyworm; 500 ppm): 0 (0-10); mortality rating (Southern Armyworm; 1000 ppm): 3.5; mortality rating (Mexican Bean Beetle; 10 ppm): 0 (0-10); mortality rating (Mexican Bean Beetle; 25 ppm): 0 (0-10); mortality rating (Mexican Bean Beetle; 50 ppm): 4.5; mortality rating (Mexican Bean Beetle; 100 ppm): 7 (71-80); mortality rating (Mexican Bean Beetle; 250 ppm): 7.5; mortality rating (Mexican Bean Beetle; 500 ppm): 8.5; mortality rating (Mexican Bean Beetle; 1000 ppm): 9 (91-100)

With `CC(C)OC(=O)n1c(C(F)(F)F)nc2c([N+](=O)[O-])cc(C(F)(F)F)cc21` [I, isopropyl 2,6-bis(trifluoromethyl)-4-nitro-1-benzimidazolecarboxylate] as the molecule, how does the mortality rating (Boll Weevil; 25 ppm) read?
Its mortality rating is 8.5.

What about the mortality rating (Boll Weevil; 50 ppm) of the same molecule?
Its mortality rating is 8.5.

And the mortality rating (Boll Weevil; 100 ppm)?
The mortality rating was 7.5.

And the mortality rating (Oriental Cockroach; 100 ppm)?
The mortality rating was 1.5.

And the mortality rating (Oriental Cockroach; 250 ppm)?
The mortality rating was 5.5.

What about the mortality rating (Oriental Cockroach; 500 ppm) of the same molecule?
The mortality rating was 6.5.

What about the average mortality rating ([2]; 10 ppm) of the same molecule?
The average mortality rating was 2.

And the average mortality rating ([2]; 25 ppm)?
Its average mortality rating is 3.

And the average mortality rating ([2]; 50 ppm)?
The average mortality rating was 6.

What about the average mortality rating ([2]; 100 ppm) of the same molecule?
The average mortality rating was 9 (91-100 percent mortality).

What about the mortality rating (Mexican Bean Beetle; 25 ppm) of the same molecule?
The mortality rating was 6.5.

What about the average mortality rating (Bean Leaf Beetle [3]; 10 ppm) of the same molecule?
The average mortality rating was 0 (0-10 percent).

And the average mortality rating (Bean Leaf Beetle [3]; 25 ppm)?
The average mortality rating was 1.

And the average mortality rating (Bean Leaf Beetle [3]; 50 ppm)?
The average mortality rating was 3.

What about the average mortality rating ([5]; 10 ppm) of the same molecule?
The average mortality rating was 2.

And the average mortality rating ([5]; 25 ppm)?
The average mortality rating was 3.

What about the average mortality rating ([5]; 50 ppm) of the same molecule?
Its average mortality rating is 5.

And the average mortality rating (Bean Leaf Beetle [6]; 25 ppm)?
Its average mortality rating is 0 (0-10 percent).

What about the average mortality rating (Bean Leaf Beetle [6]; 50 ppm) of the same molecule?
The average mortality rating was 0 (0-10 percent).

And the average mortality rating (Bean Leaf Beetle [6]; 100 ppm)?
Its average mortality rating is 4.

And the average mortality rating (Squash Bug Adults; 125 ppm)?
Its average mortality rating is 3.

What about the average mortality rating (Squash Bug Adults; 250 ppm) of the same molecule?
Its average mortality rating is 1.

What about the average mortality rating (Squash Bug Adults; 500 ppm) of the same molecule?
The average mortality rating was 0 (0-10 percent).

What about the average mortality rating (Squash Bug Adults; 750 ppm) of the same molecule?
Its average mortality rating is 0 (0-10 percent).
